Source: PubChem BioAssay AID463074 (Broad Institute, 2010)
Calls of active or inactive are those of the source.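 How the source made its calls: active means AC50 no more than tenfold above the top dose tested, or full inhibition at every dose with a flat fit (cut at about 19 µM in these data); inconclusive means flat curve fit with inhibition between 30% and 70%, or poor fit; inactive means AC50 more than tenfold above the top dose tested.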

System: HMLE_sh_eGFP viability, CellTiter-Glo luminescence, 72 h
Assay: viability loss of HMLE_sh_eGFP cells – cell-based, luminescence, counter-screen for HMLE_sh_ECad selective toxicity project, dose response (AID 463074);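 further: counterscreen control line to flag general toxicity for the HMLE_sh_ECad screen; potency for loss of viability as luminescence drops below DMSO wells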

Row | SMILES | AC50
1 | COC(=O)c1cc(=O)n(Cc2cccs2)c(=Nc2ccccc2)s1 | 4.57 µM
2 | C/C(=C\c1ccc(C(=O)O)cc1)c1ccc2c(c1)C(C)(C)CCC2(C)C | 3.7 µM
3 | O=c1cc(N2CCCCC2)c(-c2ccccc2)nn1Cc1cccc(Cl)c1 | 4.56 µM
4 | N#C/C(=C\c1c(F)cccc1Cl)c1nn(-c2ccccc2)c(-n2cccc2)c1C#N | 1.71 µM
5 | CC(C)N1C(=O)/C(=C\c2nc3ccccc3c(=O)n2-c2ccccc2)c2ccccc21 | 9.85 µM
6 | COc1ccc(-c2nc3cnccn3c2NC2CCCCC2)cc1-c1cccc(Cl)c1 | 6.62 µM
7 | COc1cc(OC)cc(C(=O)NCCNc2nc3cc(C)cc(C)c3cc2C#N)c1 | > 19.5 µM (inactive)
8 | Cc1ccc(S(=O)(=O)N2CCN(C(=O)COc3ccc(NC(=O)c4ccco4)cc3)CC2)cc1 | > 19.5 µM (inactive)
9 | COc1ccc([C@H]2Oc3cc(O)cc(O)c3C(=O)C2[C@@H]2C(=O)c3c(O)cc(O)cc3O[C@@H]2c2ccc(OC)cc2)cc1 (stereo partly drawn) | 10.6 µM
10 | OCCCn1c(CCNc2nc(-c3ccc(Cl)cc3)cs2)nc2cc(C(F)(F)F)ccc21 | 11.3 µM
11 | O=C(CSc1nnc(-c2ccccc2O)n1Cc1ccccc1)NNC(=O)c1ccccc1O | 3.22 µM
12 | O=C(Nc1ccc(N2CCN(Cc3ccccc3F)CC2)cc1)c1ccc([N+](=O)[O-])o1 | 1.94 µM
13 | O=C(Nc1nc(-c2cc(Cl)sc2Cl)cs1)c1cccs1 | 2.42 µM
14 | COc1ccccc1NC(=O)c1c(Nc2ccccc2F)sc(C(=O)Nc2cccc(Cl)c2)c1N | 2.95 µM
15 | FC(F)(F)c1cc(CCN2C(=S)NC[C@@H]2CC2CCCCC2)cc(C(F)(F)F)c1 | 7.29 µM
16 | S=c1[nH]nc(C2CCCCC2)n1/N=C/C(Cl)=C\c1ccccc1 | 8.35 µM
17 | CCCOc1ccc(-c2nc(N3CCN(CC)CC3)c3ccccc3n2)cc1 | 6.44 µM
18 | Oc1ccc(C2=NN(c3ccccc3)C(c3ccc(F)cc3)C2)cc1 (stereo not drawn) | 3.45 µM
19 | CC1(C)CCC[C@]2(C)[C@H]3Cc4cc(O)ccc4O[C@]3(C)CC[C@@H]12 | 6.89 µM
20 | CCOc1ccc(NC(=O)Nc2ccc(Cc3ccncc3)cc2)cc1 | 7.84 µM
21 | CCN(CC)S(=O)(=O)c1cccc(NC(=O)Nc2cccc(C(F)(F)F)c2)c1 | 3.56 µM
22 | O=[N+]([O-])c1cccnc1N1CCC(c2cc(-c3cccc(C(F)(F)F)c3)n[nH]2)CC1 | 3.56 µM
23 | c1ccc(N(c2ccccc2)c2nc(N3CCCC3)nc(-n3ccnc3)n2)cc1 | 6.28 µM
24 | S=C(Nc1cc(Cl)cc(Cl)c1)NC1CCN(Cc2ccccc2)CC1 | 4.23 µM
25 | COc1cc(/C=N/NC(=O)c2cc(C34CC5CC(CC(C5)C3)C4)[nH]n2)ccc1O | 0.24 µM

Row | SMILES | AC50
26 | COc1cccc(/C=N/Nc2ncnc(Cl)c2N)c1O | 3.29 µM
27 | Cc1cc(C)c2c(c1)/C(=C/C(=O)c1ccc(Br)s1)C(=O)N2 | 5.47 µM
28 | C=CCNc1ncnc2c1ncn2C1OC(CO)C(O)C1O (stereo not drawn) | 4.39 µM
29 | CCCCCCCCCCCCN1[C@@H](CC(C)=O)c2cc(F)ccc2S1(=O)=O | 10 µM
30 | OCCN1CCN(CCCN2c3ccccc3Sc3ccc(C(F)(F)F)cc32)CC1 | 4.67 µM
31 | Cc1nc2c(sc3nc(N4CCOCC4)c4c(c32)CC(C)(C)OC4)c(-c2ccccc2)c1C(=O)O | 1.98 µM
32 | CCCCCCC(C)(C)c1ccc([C@@H]2C[C@H](O)CC[C@H]2CCCO)c(O)c1 | 3.5 µM
33 | COc1ccc(C(=O)C2CCCN(Cc3cc(C)c(O)c(C)c3)C2)c(OC)c1 (stereo not drawn) | 4.9 µM
34 | CCOc1cc(CNc2ccc(Br)cc2)cc(Br)c1OCC(=O)NC(C)(C)C | 6.32 µM
35 | COc1cccc(/C=C/C(=C2/C(=O)N(c3ccccc3)N=C2C)c2ccc(Br)cc2)c1OC | > 19.5 µM (inactive)
36 | COc1cc(Nc2nc(-c3ccccc3)c3cc(C)ccc3n2)cc(OC)c1OC | 5.17 µM
37 | CC1(C)CC[C@]2(C(=O)O)CC[C@]3(C)C(=CC[C@@H]4[C@@]5(C)CC[C@H](O[C@@H]6O[C@H](C(=O)O)[C@@H](O)[C@H](O[C@@H]7OC[C@H](O)[C@H](O)[C@H]7O)[C@H]6O)C(C)(C)[C@@H]5CC[C@]43C)[C@@H]2C1 | 5.14 µM
38 | O=C(O)c1ccccc1C(=O)NNc1ccc(Cl)cc1 | 3.95 µM
39 | CCCCCCc1cc2cc(S(=O)(=O)c3ccc(Cl)cc3)c(=O)oc2cc1O | 9.25 µM
40 | CN1C2CCC1/C(=C\c1ccccc1)C(=O)/C2=C\c1ccccc1 | 4.24 µM
41 | CC(=O)c1ccc(NC(=O)c2ccc([N+](=O)[O-])o2)cc1 | 7.8 µM
42 | CC(Cc1ccccc1)NCCC(c1ccccc1)c1ccccc1 (stereo not drawn) | 8.73 µM
43 | CNC[C@H](CC1CCCCC1)NC[C@H](CO)NCCc1cccc(C(F)(F)F)c1 | 6.71 µM
44 | CC(C)c1ccc(/C=N/NC(=O)c2ccccn2)cc1 | > 19.5 µM (inactive)
45 | CNC(=O)C1C(=S)NC(N)=C(C#N)C1c1ccccc1 (stereo not drawn) | > 19.5 µM (inactive)
46 | O=C1C=C(c2ccc(Cl)c(C(F)(F)F)c2)C[C@@H](c2ccc3c(c2)OCO3)C1 | 6.37 µM
47 | Nc1cc(Cl)ccc1Oc1ccc2ccccc2c1 | > 10 µM (inactive)
48 | Cc1c(NC(=O)c2ccc([N+](=O)[O-])o2)cccc1-c1nc2ncccc2o1 | 6.52 µM
49 | CC[C@H](C)[C@H]1O[C@]2(CC[C@@H]1C)C[C@@H]1C[C@@H](CC=C(C)[C@@H](O[C@H]3C[C@H](OC)[C@@H](O[C@H]4C[C@H](OC)[C@@H](O)[C@H](C)O4)[C@H](C)O3)[C@@H](C)C=CC=C3CO[C@@H]4[C@H](O)C(C)=C[C@@H](C(=O)O1)[C@]34O)O2 | 1.78 µM
50 | CN(CC(=O)Nc1ccc(Cl)c(Cl)c1)CC(=O)Nc1ccc2c(c1)OCO2 | 17.2 µM

Row | SMILES | AC50
51 | CCn1c(C)c(C)c2cc(C(=O)Nc3cccc(Cl)c3)ccc21 | 4.05 µM
52 | CCOC(=O)c1cnc(-n2nc(C)cc2C)nc1NNc1cc(C)nc(-c2ccccc2)n1 | 2.97 µM
53 | CCCCCCCCCCS(=O)(=O)N/N=C/c1ccc([N+](=O)[O-])cc1 | 12.9 µM
54 | O=C(Nc1ncc(Cc2cccc([N+](=O)[O-])c2)s1)c1ccco1 | 1.44 µM
55 | O=C1C2C3C=CC(C3)C2C(=O)N1c1ccc(N2CCN(c3ccccn3)CC2)c([N+](=O)[O-])c1 (stereo not drawn) | 3.42 µM
56 | CC1=C(C(=O)OC2CCCCCCC2)C(c2cc3c(cc2Br)OCO3)CC(=O)N1 (stereo not drawn) | 2.57 µM
57 | CC1(O)CC(c2ccc(Cl)cc2)=NN1C(=O)c1ccc([N+](=O)[O-])cc1 (stereo not drawn) | 6.72 µM
58 | Oc1ccccc1C1=NN(c2ccccc2)C(c2ccccc2)C1 (stereo not drawn) | 1.63 µM
59 | CCOc1cc(NC(=O)c2ccccn2)c(OCC)cc1NC(=O)c1ccccc1 | > 19.5 µM (inactive)
60 | CN1CCN(c2ccc(NC(=O)c3ccc(C#N)cc3F)cc2Cl)CC1 | 19.7 µM
61 | COc1ccc2sc(-c3ccc(N(C)C)cc3)c(C#Cc3cncn3C)c2c1 | 2.18 µM
62 | O=[N+]([O-])c1ccc(COc2ccc(-c3[nH]ncc3-c3ccccc3)c(O)c2)cc1 | 8.38 µM
63 | Cc1ccc(NC2=NCC(Cc3ccc(Br)cc3)S2)cc1 (stereo not drawn) | 6.73 µM
64 | COc1ccc(NS(=O)(=O)c2ccc(O)c(NC(=O)c3cc4c(C)nn(-c5ccc(F)cc5)c4s3)c2)cc1 | 2.49 µM
65 | O=c1oc2ccccc2c(O)c1Cc1cc(Cl)c2cccnc2c1O | 4.9 µM
66 | CN(C)N1C(N)=C(C#N)C(c2cccc3ccccc23)C2=C1CC(c1ccccc1)CC2=O (stereo not drawn) | 1.02 µM
67 | O=C(NNc1ccc(-c2csnn2)cc1)c1cc(Cl)cc(Cl)c1 | 3.02 µM
68 | COc1ccc(-c2sc3cc4c(cc3c2C#CC2(N)CCCCC2)OCO4)cc1 | 1.91 µM
69 | C=CCSC(=C(C#N)C#N)c1cc2c([nH]1)CCCC2 | 13.5 µM
70 | CC1=NN(c2nc(-c3ccc(F)cc3)cs2)C(=O)C1 | 13.4 µM
71 | C/C(=N\NC(=O)c1cc(C)nc2ccccc12)c1ccccn1 | 13.1 µM
72 | COc1ccc2sc(-c3ccc(N(C)C)cc3)c(-c3ccc4cc[nH]c4c3)c2c1 | 16.5 µM
73 | Cc1nc(SCc2nc3ccc(C(F)(F)F)cc3[nH]2)c2oc3ccccc3c2n1 | 5.23 µM
74 | O=C(Nc1ccccc1)Nc1cc(Cl)cc(Cl)c1 | 5.13 µM
75 | COc1ccc(/C=C/C(=O)Nc2ccc(C34CC5CC(CC(O)(C5)C3)C4)cc2)cc1OC | 0.631 µM

Row | SMILES | AC50
76 | C[C@@H]1CN([C@H](C)CO)C(=O)c2cc(NC(=O)Nc3ccc(C(F)(F)F)cc3)ccc2O[C@H]1CN(C)S(=O)(=O)c1ccc(Cl)cc1 | 3.84 µM
77 | O=C(Nc1cccc(-c2csc(Nc3cccc(C(F)(F)F)c3)n2)c1)c1ccccc1 | 3.42 µM
78 | Cc1[nH]c2ccccc2c1/C=N/NC(=O)C1CC1(c1ccccc1)c1ccccc1 (stereo not drawn) | 6.08 µM
79 | Cc1ccc(C(=O)CSc2nc(-c3ccccc3)ccc2C#N)cc1 | 2.47 µM
80 | NCCc1ccc(OCc2ccccc2)c(OCc2ccccc2)c1 | 13.6 µM
81 | CCSc1nnc(-c2sc3nnc(-c4ccccc4)c(-c4ccccc4)c3c2N)o1 | 0.539 µM
82 | Cc1ccc(S(=O)(=O)Nc2ccc(NC(=O)Nc3cccc(C(F)(F)F)c3)cc2)cc1 | 2.51 µM
83 | CCOc1cc(N2CCOCC2)c(OCC)cc1NC(=O)CN1CCC(Cc2ccccc2)CC1 | 2.43 µM
84 | CCN1C(=O)C(=Cc2cccc(OC)c2Oc2ccc([N+](=O)[O-])cc2[N+](=O)[O-])SC1=S | 2.27 µM
85 | O=C(NNC1=C(C(=O)C(F)(F)F)CCC1)c1ccc(Cl)cc1 | 4.25 µM
86 | C=C(C)COc1ccc(-c2n[nH]c(C)c2-c2ccc(OC)c(OC)c2)c(O)c1 | 2.65 µM
87 | O=C(Nc1ccc(-c2csc(Nc3cccc(C(F)(F)F)c3)n2)cc1)c1ccccc1 | 1.96 µM
88 | C#CCOCCOCCOCCNc1nc(N2CCN(C(=O)CCCCCCCCCCNC(=O)Cn3cc(C[C@@H](C)O)nn3)CC2)nc(N2CCN(C(=O)CCCCCCCCCCNC(=O)[C@@H]([C@H](C)O)n3cc(C)nn3)CC2)n1 | 4.83 µM
89 | CC1(C)Cc2ccccc2/C(=C/C(=O)c2ccccc2)N1 | 7.27 µM
90 | Cc1cccc(N2CCN(C(=O)c3cc4n(n3)C(C(F)(F)F)CC(c3ccco3)N4)CC2)c1C (stereo not drawn) | 9.71 µM
91 | O=C(Nc1ccc2c(c1)OCCO2)C(=O)c1c[nH]c2ccccc12 | 1.85 µM
92 | CCNc1nc(NCC)n2c(SC(C(=O)Nc3cc(Cl)cc(Cl)c3)c3ccccc3)nnc2n1 (stereo not drawn) | 3.52 µM
93 | Cc1cccc2[nH]c3c(N4CC=C(c5ccc(F)cc5)CC4)ncnc3c12 | 5.01 µM
94 | O=C(Nc1cccc(Cl)c1)Nc1sccc1-c1nc2ccccc2s1 | > 19.5 µM (inactive)
95 | O=c1cc(C(F)(F)F)[nH]c2c(OC(F)(F)F)cccc12 | > 19.5 µM (inactive)
96 | C=C(CC[C@@H](O)C(C)(C)O)[C@H]1CC[C@]2(C)[C@@H]1CCC1[C@@]3(C)CC[C@H](O)C(C)(C)C3CC[C@]12C (stereo partly drawn) | 1.13 µM
97 | CCc1nc(N2CCN(Cc3ccc4c(c3)OCO4)CC2)c2oc3ccccc3c2n1 | 3.85 µM
98 | COC(=O)c1c(-c2ccc(N(C)C)cc2)sc2ccc(OC)cc12 | > 19.5 µM (inactive)
